US9956199B2, “Chromane-like cyclic prenylflavonoids for the medical intervention in neurological disorders” (priority 2011, dated 2018)
“Also recorded” adds a separate entry of the source.

Key:
[1] = tested on: promoter of the neuronal precursor specific gene doublecortin (DCX); experiment: DCX promoter firefly-luciferase assay in primary fetal mouse brain derived (MEF) cells; assay type: cell-based; conditions: for effect on DCX promoter induction: 10 μM, MEF cells, three days; for stimulatory effect on the DCX promoter activity (FF/R relative to control): DCX promoter-luciferase transfected MEF cells, stimulated three days
Protocol: Primary mouse embryonic day 16 forebrain (MEF) cultures were prepared as follows. Pregnant NMRI mice (Charles River Laboratories, Sulzfeld, Germany) were sacrificed and the uteri promptly removed and immersed in ice-cold Dulbecco's phosphate buffered saline solution—DPBS (PAA, Pasching, Austria). Eight embryonic day (E) 16 embryos were released from the uteri; forebrains were taken out, separated from surrounding tissues and mechanically dissociated using a razor blade. Subsequently the dissociated cells were collected by 5 min centrifugation at 120×g. The pellet was resuspended in 10 ml PPD-solution containing 0.01% papain (Worthington, England), 0.1% Dispasell (Roche, Basel, Switzerland), 0.01% DNasel (Worthington, England), 12.4 mM MgSO4 dissolved in HBSS w/o Ca/Mg (PAA, Pasching, Austria). The cell suspension was incubated at 37° C. and triturated every ten minutes for three times. The cell suspension was then centrifuged at 120×g for 5 minutes and washed three times in Neurobasal medium (Gibco BRL, Germany) supplemented with 2% (v/v) B27 (Gibco BRL, Karlsruhe), 2 mM L-glutamine, 100 μg/ml Penicillin/Streptomycin (PAN Biotech GmbH, Aidenbach, Germany). Finally, the cell preparation was resuspended in 12 ml Neurobasal medium supplemented with B27 (Gibco BRL, Karlsruhe), 2 mM L-glutamine, 100 μg/ml Penicillin/Streptomycin (PAN Biotech GmbH, Aidenbach, Germany), 20 ng/ml Epidermal Growth Factor—rhEGF, 20 ng/ml Fibroblast Growth Factor—rhFGF (R&D Systems, Wiesbaden-Nordenstadt, Germany) and 2 μg/ml Heparin (Sigma-Aldrich, Taufkirchen, Germany) (NB plus all), seeded in one T75 flask (TPP, Switzerland) and maintained in a humidified atmosphere at 37° C. and 5% CO2. […] On this day (day 2), half of the medium was refreshed and on day 4 cells were passaged. To passage the cells, the culture medium containing the floating neurospheres was collected in a 15 ml tube (Corning, Lowell, USA) and centrifuged at 120×g for 5 min. For dissociation, the pellet was resuspended in 500 μl Accutase (PAA, Pasching, Austria) and triturated using a 1 ml pipette. The cell suspension was incubated at 37° C. for 10 min, and then, 10 ml media were added. Cell number was determined by Trypan blue exclusion.
Luciferase assays were performed using a noncommercial dual luciferase enzyme assay system (Dyer et al., 2000, Anal Biochem). In this system, a co-transfection with pDCX-Luci and a control vector driving Renilla-luciferase under the CMV promoter was performed. The two different luciferases have different specific substrates and, therefore, the DCX regulatory region driven firefly luciferase activity can be distinguished from CMV driven Renilla-luciferase. For analysis, the firefly luciferase activity was normalized against the CMV driven Renilla-luciferase. For each transfection reaction, a volume containing two million cells was transferred into a 15 ml tube (Corning, Lowell, USA), centrifuged at 120×g for 5 min to pellet the cells and resuspended in 100 μl Amaxa Mouse Neural Stem Cell Nucleofector Kit (Lonza, Kln, Germany). Then, pDCX-Luci (Karl, 2005) and pRL3 (Promega, Mannheim, Germany) (5 μg each) were added and the entire reaction mix was transferred into an Amaxa transfection cuvette. Transfection was done using the A-033 program in the Amaxa Nucleofector II (Lonza, Kln, Germany). Transfected cells were then pipetted into 20 ml of DMEM knockout medium (Gibco BRL, Germany) containing 20% serum replacement supplement (PAN Biotech GmbH, Aidenbach, Germany), 2 mM L-glutamine (PAN Biotech GmbH, Aidenbach, Germany) and 100 μg/ml Penicillin/Streptomycin (PAN Biotech GmbH, Aidenbach, Germany) (DMEM-KO plus supplements) in a 50 ml tube (Corning, Lowell, USA). From this resulting cell suspension, 200 μl per well were plated in Poly-Ornithine/Laminin coated 96-well-luciferase plates (Wimmer & Macho, Wels, Austria) in a cell density of 20.000 cells per well, as described herein below.

PC12 cells [2] = experiment: PC12 cobalt-chloride stress test, Caspase 3/7 activation; assay type: cell-based, rat; conditions: CoCl2 300 μM, 24 hours; compounds 10 μM, NGF 50 ng/ml; FIG. 7A
Protocol: (§1) For the neuroprotection assay PC12 cells were stressed with cobalt chloride 300 μM for 24 hours and the activity of Caspase 3/7 and LDH release were measured. NGF 50 ng/ml was used as a positive control for Caspase 3/7 activity and NGF 100 ng/ml was used as a positive control for LDH release.
(§2) For the PC12-CoCl2-Assay PC12 cells were used (ATCC: CRL-1721 ™). These cells were growing in RPMI supplemented with 10% Horse Serum (heat inactivated) (Sigma Aldrich, Taufkirchen, Germany), 5% Fetal Bovine Serum (Lonza, Wuppertal, Germany), 2.5% Penicillin/Streptomycin and Glutamine (PAA, Pasching, Austria) as adherent cultures when the plates are coated with Poly-L-ornithine ([…] in water) for at least one hour at 37° C. For passaging PC12-cells were resuspended with Accutase (PAA, Pasching, Austria) for 10 minutes at 37° C. once a week.
(§3) For all experiments cells were plated (quadruplicates) on Poly-L-ornithine-coated 96-well plates at a density of 10^4 cells per well. For Caspase 3/7-measurement cells were seeded in a white 96-well-plate to detect luminescence. As positive-control for neuroprotection Nerve Growth Factor (NGF) (50 ng/ml and 100 ng/ml) was used. To induce hypoxia CoCl2 (300 μM) was added to the cells after 20-24 hours. The control-treatment was compound 1a (ENDF1), compound 1b (ENDF3), compound 3a (ENDF2), ENDF4 or Osajin in the concentrations 1 μM and 10 μM in proliferation-media without CoCl2.
For Caspase 3/7-activation Caspase 3/7 substrate was added to the cells in an equal amount 22 hours after stimulation. Plates are incubated for 2 hours at room temperature in the dark, luminescence was measured 24 hours after stimulation and the blank-values are subtracted.

PC12 cells [3] = experiment: PC12 cobalt-chloride stress test, LDH release; assay type: cell-based, rat; conditions: CoCl2 300 μM, 24 hours; compounds 10 μM, NGF 100 ng/ml; FIG. 7B
Protocol: as §1, §2, §3
For LDH-release cells were centrifuged at 1050 rpm for 5 minutes. After 24 hours of stimulation, the supernatant was mixed in an equal amount with LDH-substrate and incubated in the dark for 30 minutes. Afterwards stop solution was added and absorbance was measured at 490 nm, the blank-values are subtracted.

Structure (SMILES)	effect on DCX promoter induction [1]	stimulatory effect on the DCX promoter activity (FF/R relative to control) [1]	protection from CoCl2 induced Caspase 3/7 activity (PC12 cells [2])	protection from CoCl2 induced LDH release (cell death) (PC12 cells [3])
COc1cc2c(c(O)c1C(=O)/C=C/c1ccc(O)cc1)CCC(C)(C)O2 [Compound 1b, (E)-1-(5-hydroxy-7-methoxy-2,2-dimethylchroman-6-yl)-3-(4-hydroxyphenyl)prop-2-en-1-one]	significantly higher than those exerted by the reference compounds	significantly and strongly induce; also recorded: very strong and significant stimulatory effect	partially protected; also recorded: significant neuroprotective effect similar to NGF	partially protected; also recorded: slightly decrease the LDH release
COc1cc2c(c(O)c1C(=O)/C=C/c1ccc(O)cc1)C=CC(C)(C)O2 [Compound 1a, (E)-1-(5-hydroxy-7-methoxy-2,2-dimethyl-2H-chromen-6-yl)-3-(4-hydroxyphenyl)prop-2-en-1-one]	significantly higher than those exerted by the reference compounds	significantly and strongly induce; also recorded: very strong and significant stimulatory effect	partially protected; also recorded: significant neuroprotective effect similar to NGF	partially protected; also recorded: slightly decrease the LDH release
